Assay results reported in ChEMBL document CHEMBL2439969, “Replacement of Thr32 and Gln34 in the C-terminal neuropeptide Y fragment 25-36 by cis-cyclobutane and cis-cyclopentane β-amino acids shifts selectivity toward the Y(4) receptor” (J Med Chem, 2013).
pEC50, pKi: −log10 of the molar value. Residues, ends and D or L forms follow the SMILES beside them.

Columns and labels:
[1] = molecular target: T1, Neuropeptide Y receptor type 5 (Homo sapiens, UniProt Q15761); assay: Displacement of Cy5-pNPY from human Y5 receptor expressed in human HEC-1B cells after 90 to 120 mins by flow cytometry; format: cell-based
T1 sequence (Q15761 whole entry): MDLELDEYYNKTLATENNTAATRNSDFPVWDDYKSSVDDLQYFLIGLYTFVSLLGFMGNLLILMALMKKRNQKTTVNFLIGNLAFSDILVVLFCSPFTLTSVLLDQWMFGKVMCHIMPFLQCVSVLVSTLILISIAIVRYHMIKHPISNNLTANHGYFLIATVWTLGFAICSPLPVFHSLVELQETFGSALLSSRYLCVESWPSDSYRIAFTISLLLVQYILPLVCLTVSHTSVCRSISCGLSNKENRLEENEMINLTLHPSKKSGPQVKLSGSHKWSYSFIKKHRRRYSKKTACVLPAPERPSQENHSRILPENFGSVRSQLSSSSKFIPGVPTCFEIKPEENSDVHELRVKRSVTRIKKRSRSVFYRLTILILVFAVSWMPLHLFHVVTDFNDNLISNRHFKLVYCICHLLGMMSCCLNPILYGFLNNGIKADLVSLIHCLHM

[2] = molecular target: T2, Neuropeptide Y receptor type 2 (Homo sapiens, UniProt P49146); assay: Displacement of Cy5-pNPY from human Y2 receptor expressed in CHO cells after 90 to 120 mins by flow cytometry; format: cell-based
T2 sequence (P49146 whole entry): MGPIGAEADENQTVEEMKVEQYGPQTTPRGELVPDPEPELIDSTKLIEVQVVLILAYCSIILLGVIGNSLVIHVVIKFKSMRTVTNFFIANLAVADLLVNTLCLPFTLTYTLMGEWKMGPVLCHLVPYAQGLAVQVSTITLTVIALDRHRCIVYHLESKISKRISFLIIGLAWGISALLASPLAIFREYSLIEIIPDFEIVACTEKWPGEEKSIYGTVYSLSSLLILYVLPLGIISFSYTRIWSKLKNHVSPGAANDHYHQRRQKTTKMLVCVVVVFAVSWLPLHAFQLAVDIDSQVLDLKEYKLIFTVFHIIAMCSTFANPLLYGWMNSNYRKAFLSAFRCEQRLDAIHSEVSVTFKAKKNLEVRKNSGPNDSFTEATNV

[3] = molecular target: T3, Neuropeptide Y receptor type 1 (Homo sapiens, UniProt P25929); assay: Displacement of Cy5-pNPY from human Y1 receptor expressed in HEL cells after 90 to 120 mins by flow cytometry; format: cell-based
T3 sequence (P25929 whole entry): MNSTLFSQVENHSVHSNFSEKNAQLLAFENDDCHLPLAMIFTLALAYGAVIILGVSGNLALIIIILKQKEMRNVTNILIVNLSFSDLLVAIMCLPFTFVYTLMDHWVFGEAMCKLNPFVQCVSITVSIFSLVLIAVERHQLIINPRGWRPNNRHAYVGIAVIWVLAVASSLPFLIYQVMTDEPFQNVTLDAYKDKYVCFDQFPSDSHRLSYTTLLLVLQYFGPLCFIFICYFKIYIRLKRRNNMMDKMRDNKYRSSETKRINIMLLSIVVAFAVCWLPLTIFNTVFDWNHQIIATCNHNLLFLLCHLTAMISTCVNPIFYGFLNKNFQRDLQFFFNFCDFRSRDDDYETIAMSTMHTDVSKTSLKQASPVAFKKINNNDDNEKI

[4] = molecular target: T4, Neuropeptide Y receptor type 4 (Homo sapiens, UniProt P50391); assay: Agonist activity at human Y4 receptor expressed in sf9 cells assessed as hydrolysis of [gamma-33P]GTP after 2 mins by scintillation counting analysis
T4 sequence (P50391 whole entry): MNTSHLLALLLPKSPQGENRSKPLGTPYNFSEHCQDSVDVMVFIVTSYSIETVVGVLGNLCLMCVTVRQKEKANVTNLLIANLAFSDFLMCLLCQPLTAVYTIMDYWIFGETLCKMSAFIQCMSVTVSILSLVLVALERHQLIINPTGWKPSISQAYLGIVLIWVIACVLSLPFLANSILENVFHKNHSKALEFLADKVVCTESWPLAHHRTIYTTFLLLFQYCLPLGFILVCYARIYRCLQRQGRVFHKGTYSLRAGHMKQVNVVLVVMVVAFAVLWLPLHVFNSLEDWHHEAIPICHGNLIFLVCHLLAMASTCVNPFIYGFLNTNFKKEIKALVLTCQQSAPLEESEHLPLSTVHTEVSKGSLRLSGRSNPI

[5] = molecular target: T4, Neuropeptide Y receptor type 4; assay: Displacement of Cy5-[K4]hPP from human Y4 receptor expressed in CHO cells after 90 to 120 mins by flow cytometry; format: cell-based
[6] = molecular target: T4, Neuropeptide Y receptor type 4; assay: Partial agonist activity at human Y4 receptor expressed in sf9 cells assessed as hydrolysis of [gamma-33P]GTP after 2 mins by scintillation counting analysis relative to hPP

Compound	pKi [1]	pKi [2]	pKi [3]	pEC50 [4]	pKi [5]	Emax [6]
CC[C@H](C)[C@H](NC(=O)[C@H](Cc1ccc(O)cc1)NC(=O)[C@H](Cc1cnc[nH]1)NC(=O)[C@H](CCCNC(=N)N)NC(C)=O)C(=O)N[C@@H](CC(N)=O)C(=O)N[C@@H](CC(C)C)C(=O)N[C@H](C(=O)N[C@H](C(=O)N[C@@H](CCCNC(=N)N)C(=O)N[C@H]1C[C@@H](C(=O)N[C@@H](CCCNC(=N)N)C(=O)N[C@@H](Cc2ccc(O)cc2)C(N)=O)C1(C)C)[C@@H](C)O)[C@@H](C)CC (HELM PEPTIDE1{[ac].R.H.Y.I.N.L.I.T.R.[CC1(C)[C@@H](N[*:1])C[C@H]1C(=O)[*:2]].R.Y.[am]}$$$$V2.0)	< 6.00	< 6.00	< 6.00		< 6.00	
CC[C@H](C)[C@H](NC(=O)[C@H](Cc1ccc(O)cc1)NC(=O)[C@H](Cc1cnc[nH]1)NC(=O)[C@H](CCCN=C(N)N)NC(C)=O)C(=O)N[C@@H](CC(N)=O)C(=O)N[C@@H](CC(C)C)C(=O)N[C@H](C(=O)N[C@@H]1C[C@H](C(=O)N[C@@H](CCCN=C(N)N)C(=O)N[C@@H]2C[C@H](C(=O)N[C@@H](CCCNC(=N)N)C(=O)N[C@@H](Cc3ccc(O)cc3)C(N)=O)C2(C)C)C1(C)C)[C@@H](C)CC (HELM PEPTIDE1{[ac].R.H.Y.I.N.L.I.[CC1(C)[C@@H](C(=O)[*:2])C[C@H]1N[*:1]].R.[CC1(C)[C@@H](C(=O)[*:2])C[C@H]1N[*:1]].R.Y.[am]}$$$$V2.0)	< 6.00	< 6.00	< 6.00	7.96	9.28	
CC[C@H](C)[C@H](NC(=O)[C@H](Cc1ccc(O)cc1)NC(=O)[C@H](CCCNC(=N)N)NC(=O)[C@H](CCCNC(=N)N)NC(C)=O)C(=O)N[C@@H](CC(N)=O)C(=O)N[C@@H](CC(N)=O)C(=O)N[C@@H](CC(C)C)C(=O)N[C@H](C(=O)N[C@@H](CCCNC(=N)N)C(=O)N[C@H]1CC[C@H]1C(=O)N[C@@H](CCCNC(=N)N)C(=O)N[C@@H](Cc1ccc(O)cc1)C(N)=O)[C@@H](C)O (HELM PEPTIDE1{[ac].R.R.Y.I.N.N.L.T.R.[O=C([C@@H]1CC[C@@H]1N[*:1])[*:2]].R.Y.[am]}$$$$V2.0)	< 6.00	< 6.00	< 6.00	7.12	7.15	
CC[C@H](C)[C@H](NC(=O)[C@H](Cc1ccc(O)cc1)NC(=O)[C@H](Cc1cnc[nH]1)NC(=O)[C@H](CCCNC(=N)N)NC(C)=O)C(=O)N[C@@H](CC(N)=O)C(=O)N[C@@H](CC(C)C)C(=O)N[C@H](C(=O)N[C@H](C(=O)N[C@@H](CCCNC(=N)N)C(=O)N[C@H]1CCC[C@H]1C(=O)N[C@@H](CCCNC(=N)N)C(=O)N[C@@H](Cc1ccc(O)cc1)C(N)=O)[C@@H](C)O)[C@@H](C)CC (HELM PEPTIDE1{[ac].R.H.Y.I.N.L.I.T.R.[O=C([C@@H]1CCC[C@@H]1N[*:1])[*:2]].R.Y.[am]}$$$$V2.0)						71%
Ac-YRLRY-NH2	< 6.00	< 6.00	< 6.00			
Ac-RHYINLITRLRY-NH2	< 6.00	< 6.00	< 6.00	7.00	6.80	

Results, then the compound that gave them:

pKi [1]	pKi [2]	pKi [3]	pEC50 [4]	pKi [5]	Emax [6]	Compound
< 6.30	6.66	< 6.00	7.29	7.85		CCCC[C@H](NC(=O)[C@H](CC(N)=O)NC(=O)[C@@H](NC(=O)[C@H](Cc1ccc(O)cc1)NC(=O)[C@H](CCCNC(=N)N)NC(=O)[C@H](CCCNC(=N)N)NC(C)=O)[C@@H](C)CC)C(=O)N[C@@H](CC(C)C)C(=O)N[C@H](C(=O)N[C@@H](CCCNC(=N)N)C(=O)N[C@H]1CCC[C@H]1C(=O)N[C@@H](CCCNC(=N)N)C(=O)N[C@@H](Cc1ccc(O)cc1)C(N)=O)[C@@H](C)O (HELM PEPTIDE1{[ac].R.R.Y.I.N.[Nle].L.T.R.[O=C([C@@H]1CCC[C@@H]1N[*:1])[*:2]].R.Y.[am]}$$$$V2.0)
< 6.00	< 6.00	< 6.00	6.54	6.31		Ac-TRLRY-NH2
< 6.00	< 6.00	< 6.00	7.03	6.98		CC(=O)N[C@@H](Cc1ccc(O)cc1)C(=O)N[C@@H](CCCNC(=N)N)C(=O)N[C@H]1CCC[C@H]1C(=O)N[C@@H](CCCN=C(N)N)C(=O)N[C@@H](Cc1ccc(O)cc1)C(N)=O (HELM PEPTIDE1{[ac].Y.R.[O=C([C@@H]1CCC[C@@H]1N[*:1])[*:2]].R.Y.[am]}$$$$V2.0)
< 6.00	< 6.00	< 6.00	6.91	7.14		CC[C@H](C)[C@H](NC(=O)[C@H](Cc1ccc(O)cc1)NC(=O)[C@H](Cc1cnc[nH]1)NC(=O)[C@H](CCCNC(=N)N)NC(C)=O)C(=O)N[C@@H](CC(N)=O)C(=O)N[C@@H](CC(C)C)C(=O)N[C@H](C(=O)N[C@H](C(=O)N[C@@H](CCCNC(=N)N)C(=O)N[C@H]1CC[C@H]1C(=O)N[C@@H](CCCNC(=N)N)C(=O)N[C@@H](Cc1ccc(O)cc1)C(N)=O)[C@@H](C)O)[C@@H](C)CC (HELM PEPTIDE1{[ac].R.H.Y.I.N.L.I.T.R.[O=C([C@@H]1CC[C@@H]1N[*:1])[*:2]].R.Y.[am]}$$$$V2.0)
< 6.30	< 6.00	< 6.00	7.32	7.43		CC[C@H](C)[C@H](NC(=O)[C@H](Cc1ccc(O)cc1)NC(=O)[C@H](Cc1cnc[nH]1)NC(=O)[C@H](CCCN=C(N)N)NC(C)=O)C(=O)N[C@@H](CC(N)=O)C(=O)N[C@@H](CC(C)C)C(=O)N[C@H](C(=O)N[C@H]1CCC[C@H]1C(=O)N[C@@H](CCCN=C(N)N)C(=O)N[C@H]1CCC[C@H]1C(=O)N[C@@H](CCCN=C(N)N)C(=O)N[C@@H](Cc1ccc(O)cc1)C(N)=O)[C@@H](C)CC (HELM PEPTIDE1{[ac].R.H.Y.I.N.L.I.[O=C([C@@H]1CCC[C@@H]1N[*:1])[*:2]].R.[O=C([C@@H]1CCC[C@@H]1N[*:1])[*:2]].R.Y.[am]}$$$$V2.0)
< 6.00	< 6.00	< 6.00	6.35	6.29		CC(=O)N[C@H](C(=O)N[C@@H](CCCNC(=N)N)C(=O)N[C@H]1CCC[C@H]1C(=O)N[C@@H](CCCNC(=N)N)C(=O)N[C@@H](Cc1ccc(O)cc1)C(N)=O)[C@@H](C)O (HELM PEPTIDE1{[ac].T.R.[O=C([C@@H]1CCC[C@@H]1N[*:1])[*:2]].R.Y.[am]}$$$$V2.0)
< 6.00	6.15	< 6.00	6.55	7.03		CCCC[C@H](NC(=O)[C@H](CC(N)=O)NC(=O)[C@@H](NC(=O)[C@H](Cc1ccc(O)cc1)NC(=O)[C@H](CCCNC(=N)N)NC(=O)[C@H](CCCNC(=N)N)NC(C)=O)[C@@H](C)CC)C(=O)N[C@@H](CC(C)C)C(=O)N[C@H](C(=O)N[C@@H](CCCNC(=N)N)C(=O)N[C@H]1CC[C@H]1C(=O)N[C@@H](CCCNC(=N)N)C(=O)N[C@@H](Cc1ccc(O)cc1)C(N)=O)[C@@H](C)O (HELM PEPTIDE1{[ac].R.R.Y.I.N.[Nle].L.T.R.[O=C([C@@H]1CC[C@@H]1N[*:1])[*:2]].R.Y.[am]}$$$$V2.0)
< 6.00	< 6.00	< 6.00	7.18	7.46		CC[C@H](C)[C@H](NC(=O)[C@H](Cc1ccc(O)cc1)NC(=O)[C@H](Cc1cnc[nH]1)NC(=O)[C@H](CCCNC(=N)N)NC(C)=O)C(=O)N[C@@H](CC(N)=O)C(=O)N[C@@H](CC(C)C)C(=O)N[C@@H](CCCNC(=N)N)C(=O)N[C@H]1CC[C@H]1C(=O)N[C@@H](CCCNC(=N)N)C(=O)N[C@H]1CC[C@H]1C(=O)N[C@@H](CCCNC(=N)N)C(=O)N[C@@H](Cc1ccc(O)cc1)C(N)=O (HELM PEPTIDE1{[ac].R.H.Y.I.N.L.R.[O=C([C@@H]1CC[C@@H]1N[*:1])[*:2]].R.[O=C([C@@H]1CC[C@@H]1N[*:1])[*:2]].R.Y.[am]}$$$$V2.0)
